Assays:
[1] = in vivo; cited from earlier work
[2] = system: male IOPS Han Ico Wistar rats, septic shock by LPS Salmonella typhimurium
[3] = venous blood at euthanasia H 6h30, individual rats, selenite alone = group 2 perfusion
[4] = venous blood gases at euthanasia H 6h30, individual rats, selenite alone = group 2 perfusion

Structure (SMILES) | NOAEL No Adverse Effect Level determined in nutrition, per kg [1] [μg/kg per day] | ScvO2 or SaO2 ([2]; blood at euthanasia H 6h30, individual rats, selenite alone = group 2 perfusion) | Creat ([2]; creatinine at H 6h30, individual rats, selenite alone = group 2 perfusion) | Gly ([2]; glycemia at H 6h30, individual rats, selenite alone = group 2 perfusion) | survival of animals ([2]; group 4: control B2 then Na2SeO3 alone in 3 flash injections every 10 min, LPS 50 mg/kg) | Lactate level ([2]; individual rats, LPS 50 mg/kg, sample at H 6h30, selenite alone = group 2, 0.3 mg/kg Se perfused over 30 min, Sel-P over 30 min, combination = Sel-P then 3 flash injections of selenite 0.1 mg/kg) [mmol/L] | CO3H— [2, 3] | Venous lactate [2, 3] [mmol/L] | PCO2 [2, 4] [mmHg] | PaO2 [2, 4] [mmHg] | pH [2, 4]
[Se] [selenium] | 11 | – | – | – | – | – | – | – | – | – | –
O=[Se](O)O [sodium selenite] | – | 8.9 | 156 | 0.27 | do not survive | 8.75 | 19.6 | 8.75 | 97 | 16 | 6.906

Source: patent US11224633B2, “Kit for treating sepsis and/or any systemic (SIRS) or damaging cellular hyperinflammation” (priority 2015, dated 2022)
